# Counter-ions that a name gives are not always drawn. Like-named read-outs stand apart in the source and are kept apart here.
# Columns and labels:
# [1] = target: T1, human Dopamine D2L receptor (Homo sapiens, UniProt P14416); assay: In vitro binding affinity for human D2L receptor ([3H]spiperone); settings: membranes of human D2L receptor-transfected CHO cells, read-out: D2L binding pIC50 (converted)
# T1 construct: expressed in transfected cells; host or cells: CHO cells (membranes)
# Excerpt: In order to find antipsychotic compounds active against positive and negative symptoms and cognitive impairment, and having an improved safety profile (low EPS incidence and no metabolic disorders), we have screened for compounds selectively interacting with the dopamine D2 receptor and dissociating fast from this receptor, and further having affinity for the dopamine D3 receptor as well as the serotonin 5-HT-6 receptor. Compounds were first screened for their D2 affinity in a binding assay using [^3H]spiperone and human D2L receptor cell membranes.
# Pharmacology In Vitro Binding Affinity for Human D2L Receptor
# Frozen membranes of human Dopamine D2L receptor-transfected CHO cells were thawed, briefly homogenised using an Ultra-Turrax T25 homogeniser and diluted in Tris-HCl assay buffer containing NaCl, CaCl2, MgCl2, KCl (50, 120, 2, 1, and 5 mM respectively, adjusted to pH 7.7 with HCl) to an appropriate protein concentration optimised for specific and non-specific binding. Radioligand [^3H]Spiperone (NEN, specific activity ˜70 Ci/mmol) was diluted in assay buffer at a concentration of 2 nmol/L. Prepared radioligand (50 μl), along with 50 μl of either the 10% DMSO control, Butaclamol (10^−6 mol/1 final concentration), or compound of interest, was then incubated (30 min, 37° C.) with 400 μl of the prepared membrane solution. Membrane-bound activity was filtered through a Packard Filtermate harvester onto GF/B Unifilterplates and washed with ice-cold Tris-HCl buffer (50 mM; pH 7.7; 6×0.5 ml). Filters were allowed to dry before adding scintillation fluid and counting in a Topcount scintillation counter. Percentage specific bound and competition binding curves were calculated using S-Plus software (Insightful).
# [2] = target: T2, human Dopamine D3 receptor (Homo sapiens, UniProt P35462); assay: In vitro binding affinity for human D3 receptor ([125I]iodosulpride)
# T2 construct: expressed in transfected cells; host or cells: CHO cells (membranes)
# Experimental: In Vitro Binding Affinity for Human D3 Receptor
# Frozen membranes of human Dopamine D3 receptor-transfected CHO cells were thawed, briefly homogenized using an Ultra-Turrax T25 homogeniser and diluted in 50 mM Tris-HCl assay buffer containing 120 mM NaCl, 2 mM CaCl2, 1 mM MgCl2, 5 mM KCl and 0.1% BSA (adjusted to pH 7.4 with HCl) to an appropriate protein concentration optimized for specific and non-specific binding. Radioligand [^125I]Iodosulpride (Amersham, specific activity ˜2000 Ci/mmol) was diluted in assay buffer at a concentration of 2 nM. Prepared radioligand (20 μl), along with 40 μl of either the 10% DMSO control, Risperidone (10^−6M final concentration), or compound of interest, was then incubated with 70 μl of the prepared membrane solution and 70 μl of WGA coated PVT beads (0.25 mg/well final concentration). After shaking for 24 hours at RT plates were counted in a Topcount™ scintillation counter. Percentage specific binding and competition binding curves were calculated using S-Plus software (Insightful).
# [3] = target: T3, human Serotonin 5HT6 receptor (Homo sapiens, UniProt P50406); assay: In vitro binding affinity for human 5HT6 receptor ([3H]lysergic acid diethylamide); settings: [3H]LSD, membranes of human 5HT6 receptor-transfected HEK cells; for IC50: read-out: 5-HT6 binding pIC50 (converted)
# T3 construct: expressed in transfected cells; host or cells: HEK cells (membranes)
# Experimental: In Vitro Binding Affinity for Human 5HT6 Receptor
# Frozen membranes of human Serotonin 5HT6 receptor-transfected HEK cells were thawed, briefly homogenized using an Ultra-Turrax T25 homogeniser and diluted in 50 mM Tris-HCl assay buffer containing 10 mM MgCl2, 1 mM EDTA and 10 μM Pargyline (adjusted to pH 7.4 with HCl) to an appropriate protein concentration optimized for specific and non-specific binding. Radioligand [^3H]Lysergic acid diethylamide (Perkin Elmer, specific activity ˜80 Ci/mmol) was diluted in assay buffer at a concentration of 20 nM. Radioligand (20 μl), along with 40 μl of either the 10% DMSO control, Methiothepine (10^−5 M final concentration), or compound of interest, was then incubated with 70 μl of the prepared membrane solution and 70 μl of WGA coated PVT beads (0.25 mg/well final concentration). After shaking for 24 hours at RT plates were counted in a Topcount™ scintillation counter. Percentage specific binding and competition binding curves were calculated using S-Plus software (Insightful).
# [4] = [125I]iodosulpride, membranes of human D3 receptor-transfected CHO cells, read-out: D3 binding pIC50 (converted)
# T3 sequence (P50406 whole entry): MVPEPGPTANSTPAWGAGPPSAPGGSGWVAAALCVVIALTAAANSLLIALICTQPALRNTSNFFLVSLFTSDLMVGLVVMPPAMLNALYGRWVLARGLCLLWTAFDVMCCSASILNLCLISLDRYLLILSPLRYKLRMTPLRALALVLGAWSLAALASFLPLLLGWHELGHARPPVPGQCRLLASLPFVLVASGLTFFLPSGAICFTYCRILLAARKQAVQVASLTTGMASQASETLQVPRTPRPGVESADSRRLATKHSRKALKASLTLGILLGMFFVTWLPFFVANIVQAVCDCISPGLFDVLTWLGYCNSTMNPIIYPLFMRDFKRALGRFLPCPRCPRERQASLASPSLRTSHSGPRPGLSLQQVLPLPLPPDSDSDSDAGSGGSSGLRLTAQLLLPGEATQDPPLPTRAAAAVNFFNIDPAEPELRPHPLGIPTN
# T1 sequence (P14416 whole entry): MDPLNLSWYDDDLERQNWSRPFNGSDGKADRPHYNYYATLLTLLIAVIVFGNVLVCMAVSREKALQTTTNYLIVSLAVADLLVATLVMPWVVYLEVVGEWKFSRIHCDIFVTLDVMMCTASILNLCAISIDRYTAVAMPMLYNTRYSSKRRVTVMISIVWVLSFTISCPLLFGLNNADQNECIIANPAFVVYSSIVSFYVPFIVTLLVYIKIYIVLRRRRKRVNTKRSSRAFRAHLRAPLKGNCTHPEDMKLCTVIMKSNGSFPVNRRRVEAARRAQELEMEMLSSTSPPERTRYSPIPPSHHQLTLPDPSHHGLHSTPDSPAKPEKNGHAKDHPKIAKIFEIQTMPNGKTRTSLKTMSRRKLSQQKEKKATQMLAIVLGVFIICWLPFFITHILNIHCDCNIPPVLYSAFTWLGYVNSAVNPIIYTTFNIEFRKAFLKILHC
# T2 sequence (P35462 whole entry): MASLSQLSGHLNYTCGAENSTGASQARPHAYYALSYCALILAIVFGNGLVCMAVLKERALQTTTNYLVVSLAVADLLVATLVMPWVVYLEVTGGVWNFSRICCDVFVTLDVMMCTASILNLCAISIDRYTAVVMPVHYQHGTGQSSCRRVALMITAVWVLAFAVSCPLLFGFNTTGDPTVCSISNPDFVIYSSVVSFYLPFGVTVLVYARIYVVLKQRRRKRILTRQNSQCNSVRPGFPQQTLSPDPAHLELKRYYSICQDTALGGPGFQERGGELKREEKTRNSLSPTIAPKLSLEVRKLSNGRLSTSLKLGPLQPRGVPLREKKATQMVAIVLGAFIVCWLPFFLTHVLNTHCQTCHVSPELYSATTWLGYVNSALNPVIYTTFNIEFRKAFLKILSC
structure (smiles),measurement,setting,value
FC(F)(F)c1nnc(N2CCN(CC3CC3)CC2)cc1-c1ccccc1 [Example E39],IC50,[1],0.0603 µM
same,IC50,[2]; [4],> 10 µM
same,IC50,[3],3.89 µM
"C[C@@H]1CN(c2cc(-c3ccccc3)c(C(F)(F)F)nn2)C[C@H](C)N1 (as salt: hydrochloric acid salt) [Example E4, cis-6-(3,5-Dimethylpiperazin-1-yl)-4-phenyl-3-trifluoromethyl-pyridazine]",melting point,,285.4 °C
COc1ccccc1-c1cc(N2CCNCC2)nnc1C(F)(F)F (as salt: hydrochloric acid salt) [Example E31],melting point,,287.7 °C
Cc1cscc1-c1cc(N2CCNCC2)nnc1C(F)(F)F [Example E29],IC50,[1],3.55 µM
same,melting point,,101 °C
same,IC50,[2]; [4],> 10 µM
same,IC50,[3],0.537 µM
FC(F)(F)c1nnc(N2CCN(C3CC3)CC2)cc1-c1ccccc1 [Example E23],IC50,[1],1.86 µM
same,melting point,,152 °C
same,IC50,[2]; [4],0.275 µM
same,IC50,[3],> 10 µM
"FC(F)(F)c1nnc(N2CCNCC2)cc1-c1ccc(Cl)s1 [Example E27, 4-(5-Chloro-thiophen-2-yl)-6-piperazin-1-yl-3-trifluoromethyl-pyridazine]",IC50,[1],1.51 µM
same,IC50,[2]; [4],> 10 µM
same,IC50,[3],0.794 µM
Cc1cc(F)ccc1-c1cc(N2CCNCC2)nnc1C(F)(F)F [Example E28],IC50,[1],0.372 µM
same,IC50,[2]; [4],0.0479 µM
same,IC50,[3],0.245 µM
FC(F)(F)c1nnc(N2CCNCC2)cc1-c1cccs1 [Example E19],IC50,[1],1.38 µM
same,melting point,,112.6 °C
same,IC50,[2]; [4],0.148 µM
same,IC50,[3],1.95 µM
CN(C)c1ccc(-c2cc(N3CCNCC3)nnc2C(F)(F)F)cc1 (as salt: hydrochloric acid salt) [Example E32],melting point,,198.7 °C
"CCN1CCN(c2cc(-c3ccccc3)c(C(F)(F)F)nn2)CC1 (as salt: hydrochloric acid salt) [Example E2, 6-(4-Ethylpiperazin-1-yl)-4-phenyl-3-trifluoromethyl-pyridazine]",melting point,,281.9 °C
FC(F)(F)c1nnc(N2CCNCC2)cc1-c1cccc2ccccc12 [Example E18],IC50,[1],7.76 µM
same,IC50,[2]; [4],> 10 µM
same,IC50,[3],0.158 µM
FC(F)(F)c1nnc(N2CCNCC2)cc1-c1cccc2ccccc12 (as salt: hydrochloric acid salt) [Example E18],melting point,,281.8 °C
Cc1csc(-c2cc(N3CCNCC3)nnc2C(F)(F)F)c1 [Example E30],IC50,[1],0.759 µM
same,melting point,,98.1 °C
same,IC50,[2]; [4],0.0537 µM
same,IC50,[3],0.562 µM
CCCCN1CCN(c2cc(-c3ccccc3)c(C(F)(F)F)nn2)CC1 [Example E25],IC50,[1],0.0692 µM
same,melting point,,102.9 °C
same,IC50,[2]; [4],0.00263 µM
same,IC50,[3],2.69 µM
FC(F)(F)c1nnc(N2CCNCC2)cc1-c1cccc(Cl)c1 [Example E16],IC50,[1],4.79 µM
same,melting point,,178.8 °C
same,IC50,[2]; [4],0.55 µM
same,IC50,[3],0.245 µM
FC(F)(F)c1nnc(N2CCNCC2)cc1-c1cc(Cl)ccc1Cl [Example E34],IC50,[1],4.68 µM
same,IC50,[2]; [4],0.0871 µM
same,IC50,[3],0.794 µM
Clc1nnc(N2CCNCC2)cc1-c1ccccc1 [Example E20],IC50,[1],1.41 µM
same,melting point,,173.9 °C
same,IC50,[2]; [4],0.151 µM
same,IC50,[3],4.37 µM
Cc1ccc(-c2cc(N3CCNCC3)nnc2C(F)(F)F)cc1 [Example E11],IC50,[1],1.26 µM
same,melting point,,110.6 °C
same,IC50,[2]; [4],0.0891 µM
same,IC50,[3],0.741 µM
Fc1cccc(-c2cc(N3CCNCC3)nnc2C(F)(F)F)c1 [Example E15],IC50,[1],5.75 µM
same,melting point,,144.7 °C
same,IC50,[2]; [4],0.631 µM
same,IC50,[3],1.55 µM
FC(F)(F)c1nnc(N2CCN(Cc3cccnc3)CC2)cc1-c1ccccc1 [Example E37],IC50,[1],0.562 µM
same,IC50,[2]; [4],0.178 µM
same,IC50,[3],> 10 µM
CN1CCN(c2cc(-c3ccccc3)c(C(F)(F)F)nn2)CC1 (as salt: hydrochloric acid salt) [Example E22],melting point,,163.3 °C
"FC(F)(F)c1nnc(N2CCN3CCCC3C2)cc1-c1ccccc1 (racemic) (as salt: hydrochloric acid salt) [Example E5, 2-(5-Phenyl-6-trifluoromethyl-pyridazin-3-yl)-octahydro-pyrrolo[1,2-a]pyrazine]",melting point,,104.2 °C
"Fc1cc(F)cc(CN2CCN(c3cc(-c4ccccc4)c(C(F)(F)F)nn3)CC2)c1 [Example E3, 6-[4-(3,5-Difluorobenzyl)piperazin-1-yl]-4-phenyl-3-trifluoromethyl-pyridazine]",IC50,[1],0.617 µM
same,melting point,,138.8 °C
same,IC50,[2]; [4],> 10 µM
same,5-HT6 binding pIC50,[3],>5
COc1ccccc1-c1cc(N2CCNCC2)nnc1C(F)(F)F [Example E31],IC50,[1],> 10 µM
same,IC50,[2]; [4],0.479 µM
same,IC50,[3],1.12 µM
Fc1ccccc1-c1cc(N2CCNCC2)nnc1C(F)(F)F [Example E33],IC50,[1],1.23 µM
same,IC50,[2],0.0525 µM
same,IC50,[3],1.29 µM
FC(F)(F)c1nnc(N2CCNCC2)cc1-c1ccc2ccccc2c1 [Example E17],IC50,[1],7.94 µM
same,melting point,,128.1 °C
same,IC50,[2]; [4],0.398 µM
same,IC50,[3],0.437 µM
Fc1ccc(CN2CCN(c3cc(-c4ccccc4)c(C(F)(F)F)nn3)CC2)cc1F [Example E21],IC50,[1],2 µM
same,melting point,,185.1 °C
same,IC50,[2]; [4],1.48 µM
same,5-HT6 binding pIC50,[3],>5
CN1CCN(c2cc(-c3ccccc3)c(C(F)(F)F)nn2)CC1 [Example E22],IC50,[1],0.776 µM
same,IC50,[2]; [4],0.0389 µM
same,IC50,[3],1.26 µM
FC(F)(F)c1nnc(N2CCN(Cc3ccccn3)CC2)cc1-c1ccccc1 [Example E38],IC50,[1],0.282 µM
same,IC50,[2]; [4],0.0871 µM
same,IC50,[3],> 10 µM
Oc1cccc(-c2cc(N3CCNCC3)nnc2C(F)(F)F)c1 [Example E13],IC50,[1],5.13 µM
same,IC50,[2]; [4],> 10 µM
same,IC50,[3],3.55 µM
CC1CN(c2cc(-c3ccccc3)c(C(F)(F)F)nn2)C(C)CN1 (racemic) [Example E26],IC50,[1],6.03 µM
same,IC50,[2]; [4],> 10 µM
same,IC50,[3],2.29 µM
FC(F)(F)c1nnc(N2CCN(Cc3ccccc3)CC2)cc1-c1ccccc1 [Example E36],IC50,[1],0.0331 µM
same,IC50,[2]; [4],> 10 µM
same,IC50,[3],6.61 µM
"C[C@@H]1CN(c2cc(-c3ccccc3)c(C(F)(F)F)nn2)C[C@H](C)N1 [Example E4, cis-6-(3,5-Dimethylpiperazin-1-yl)-4-phenyl-3-trifluoromethyl-pyridazine]",IC50,[1],3.8 µM
same,IC50,[2]; [4],> 10 µM
same,IC50,[3],8.51 µM
CCCN1CCN(c2cc(-c3ccccc3)c(C(F)(F)F)nn2)CC1 [Example E24],IC50,[1],0.0676 µM
same,melting point,,129.8 °C
same,IC50,[2]; [4],> 10 µM
same,IC50,[3],5.37 µM
FC(F)(F)c1nnc(N2CCNCC2)cc1-c1ccc(Br)cc1 [Example E14],IC50,[1],4.07 µM
same,melting point,,138.2 °C
same,IC50,[2]; [4],> 10 µM
same,IC50,[3],4.27 µM
CN(C)c1ccc(-c2cc(N3CCNCC3)nnc2C(F)(F)F)cc1 [Example E32],IC50,[1],> 10 µM
same,IC50,[2]; [4],1.29 µM
same,IC50,[3],0.977 µM
FC(F)(F)c1nnc(N2CCNCC2)cc1-c1cc(Cl)ccc1Cl (as salt: hydrochloric acid salt) [Example E34],melting point,,286.3 °C
CC1CN(c2cc(-c3ccccc3)c(C(F)(F)F)nn2)C(C)CN1 (racemic) (as salt: hydrochloric acid salt) [Example E26],melting point,,273 °C
